Values of other authors as cited in US12296049B2, “Immediate release dosage form” (Kenvue Brands LLC, priority 2019, dated 2025).

Conditions: at lower acidic pH it precipitates

pH at which the drug stays in solution: above 5.4
SMILES: COc1ccc2cc([C@H](C)C(=O)O)ccc2c1 [naproxen sodium]
